# Measurements reported in patent US20230047816A1 (priority 2018, published 2023).
# Molecular target: Recombinant full length human PFKFB3 (Homo sapiens, UniProt Q16875)
# Test: PFKFB3 kinase activity assay (ADP production, ADP-Glo)
# Protocol: Recombinant full length human PFKFB3 (or PFKFB4) protein purified from Sf9 baculoviral system was acquired from SignalChem (Cat. #P323-30G or P324-30G). ATP, Fructose-6-Phosphate and other chemicals were from Sigma-Aldrich. The kinase activity of the PFKFB3 (PFKFB4) protein was detected by measuring production of ADP from ATP in the presence of the Fructose-6-Phosphate substrate. The kinase reactions were assembled in 384 well plates in a total volume of 25 μL. Test compounds were serially diluted in DMSO. Reactions were set up by first mixing test compounds with enzyme and pre-incubating for 15 min. The ATP and Fructose-6-Phosphate substrates were next added to initiate the kinase reactions.
# The compounds of invention listed below in this example were tested at various concentrations (which also added 1% DMSO from compounds, to the final solution) as described below. The kinase reactions were allowed to proceed for 1 h at room temperature. Aliquots of the reaction mixtures (5 μL) were transferred to fresh white 384 well plates and mixed with 5 μL of the ADP-Glo reagent (Promega), followed by incubation for 30 min. The luminescent Kinase Detection reagent was added (10 μL) and, following additional incubation for 15 min, the plates were read on luminescence plate reader (Analyst HT). Positive (100%-inhibition) and negative (0%-inhibition) control samples were assembled in each assay plate and were used to calculate percent inhibition values of test compounds. All experiments were performed in duplicate.
# Sequence of Recombinant full length human PFKFB3 (Q16875 whole entry): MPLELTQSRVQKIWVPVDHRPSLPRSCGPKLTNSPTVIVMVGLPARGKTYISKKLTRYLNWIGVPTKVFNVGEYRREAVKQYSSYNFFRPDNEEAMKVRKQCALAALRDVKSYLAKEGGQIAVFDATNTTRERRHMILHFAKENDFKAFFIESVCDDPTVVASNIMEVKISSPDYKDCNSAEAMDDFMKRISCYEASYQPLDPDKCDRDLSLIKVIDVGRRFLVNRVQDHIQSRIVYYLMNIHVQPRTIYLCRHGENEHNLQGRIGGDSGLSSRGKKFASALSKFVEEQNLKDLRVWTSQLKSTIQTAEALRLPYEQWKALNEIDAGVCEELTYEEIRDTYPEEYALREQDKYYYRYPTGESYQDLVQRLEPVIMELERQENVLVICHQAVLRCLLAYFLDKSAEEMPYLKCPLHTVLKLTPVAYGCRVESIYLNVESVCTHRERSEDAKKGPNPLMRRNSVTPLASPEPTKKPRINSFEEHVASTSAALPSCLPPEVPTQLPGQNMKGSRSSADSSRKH
row,SMILES,IC50 [µM]
1,"CC1(C)CCN(c2ccc(C(=O)O)c(NC(=O)c3cc(C(=O)O)c(O)cc3C(=O)O)c2)CC1 [Example 56, 2-{[2-carboxy-5-(4,4-dimethylpiperidin-1-yl)phenyl]carbamoyl}-5-hydroxybenzene-1,4-dicarboxylic acid]",< 0.5
2,O=C(O)c1ccc(-c2cccs2)cc1N1C(=O)c2ccc(-c3c[nH]nn3)cc2C1=O [Example 56],2 to 5
3,"CC1(C)CCC(c2ccc(C(=O)O)c(NC(=O)c3cc(C(=O)O)c(O)cc3C(=O)O)c2)CC1 [Example 57, 2-{[2-carboxy-5-(4,4-dimethylcyclohexyl)phenyl]carbamoyl}-5-hydroxybenzene-1,4-dicarboxylic acid]",< 0.5
4,O=C(O)c1ccc(-c2ccc(F)cc2)cc1N1C(=O)c2ccc(-c3c[nH]nn3)cc2C1=O [Example 57],2 to 5
5,"O=C(O)c1cc(C(=O)O)c(C(=O)Nc2cc(N3CC4CCC3C4)ccc2C(=O)O)cc1O (stereo not drawn) [Example 58, 4-[(5-{2-azabicyclo[2.2.1]heptan-2-yl}-2-carboxyphenyl)carbamoyl]-6-hydroxybenzene-1,3-dicarboxylic acid]",< 0.5
6,"O=C(O)c1cc(C(=O)O)c(C(=O)Nc2cc(-c3ccc(Cl)cc3Cl)ccc2C(=O)O)cc1F [Example 59, 4-({4-carboxy-2′,4′-dichloro-[1,1′-biphenyl]-3-yl}carbamoyl)-6-fluorobenzene-1,3-dicarboxylic acid]",< 0.5
7,O=C(O)c1ccc(-c2ccccc2)cc1N1C(=O)c2ccc(-c3c[nH]nn3)cc2C1=O [Example 59],< 0.5
8,"CCOC(=O)c1ccc(-c2ccc(Cl)cc2Cl)cc1NC(=O)c1cc(C(=O)O)c(O)cc1C(=O)O [Example 60, 2-{[2′,4′-dichloro-4-(ethoxycarbonyl)-[1,1′-biphenyl]-3-yl]carbamoyl}-5-hydroxybenzene-1,4-dicarboxylic acid]",< 0.5
9,O=C(O)c1cc(-c2c[nH]cn2)ccc1N1C(=O)c2ccc(-c3c[nH]nn3)cc2C1=O [Example 60],< 0.5
10,"O=C(O)c1cc(C(=O)Nc2cc(N3CC4CCC3C4)ccc2C(=O)O)c(C(=O)O)cc1O (stereo not drawn) [Example 61, 2-[(5-{2-azabicyclo[2.2.1]heptan-2-yl}-2-carboxyphenyl)carbamoyl]-5-hydroxybenzene-1,4-dicarboxylic acid]",< 0.5
11,Cn1cncc1-c1ccc(N2C(=O)c3ccc(-c4c[nH]nn4)cc3C2=O)c(C(=O)O)c1 [Example 61],5 to 20
12,"CC1(C)CCC(c2ccc(C(=O)O)c(NC(=O)c3cc(F)c(C(=O)O)cc3C(=O)O)c2)CC1 [Example 63, 4-{[2-carboxy-5-(4,4-dimethylcyclohexyl)phenyl]carbamoyl}-6-fluorobenzene-1,3-dicarboxylic acid]",< 0.5
13,O=C(O)c1cc(-c2cnccn2)ccc1N1C(=O)c2ccc(-c3c[nH]nn3)cc2C1=O [Example 63],5 to 20
14,"CC1(C)CCC(c2ccc(C(=O)O)c(NC(=O)c3cc(C(=O)O)c(F)cc3C(=O)O)c2)CC1 [Example 64, 2-{[2-carboxy-5-(4,4-dimethylcyclohexyl)phenyl]carbamoyl}-5-fluorobenzene-1,4-dicarboxylic acid]",< 0.5
15,O=C(O)c1cc(-c2cncnc2)ccc1N1C(=O)c2ccc(-c3c[nH]nn3)cc2C1=O [Example 64],< 20
16,"CC(CN(C)C)OC(=O)c1ccc(-c2ccc(Cl)cc2Cl)cc1NC(=O)c1cc(O)c(C(=O)O)cc1C(=O)O (stereo not drawn) [Example 65, 4-{[2′,4′-dichloro-4-({[1-(dimethylamino)propan-2-yl]oxy}carbonyl)-[1,1′-biphenyl]-3-yl]carbamoyl}-6-hydroxybenzene-1,3-dicarboxylic acid]",< 0.5
17,Nc1ccc(-c2ccc(N3C(=O)c4ccc(-c5c[nH]nn5)cc4C3=O)c(C(=O)O)c2)cn1 [Example 65],2 to 5
18,"CC(COC(=O)c1ccc(-c2ccc(Cl)cc2Cl)cc1NC(=O)c1cc(O)c(C(=O)O)cc1C(=O)O)N(C)C (stereo not drawn) [Example 66, 4-[(2′,4′-dichloro-4-{[2-(dimethylamino)propoxy]carbonyl}-[1,1′-biphenyl]-3-yl)carbamoyl]-6-hydroxybenzene-1,3-dicarboxylic acid]",< 0.5
19,CN(C)CCOC(=O)c1ccc(-c2ccccc2)cc1N1C(=O)c2ccc(-c3c[nH]nn3)cc2C1=O [Example 66],2 to 5
20,"CN1CCC(OC(=O)c2ccc(-c3ccc(Cl)cc3Cl)cc2NC(=O)c2cc(O)c(C(=O)O)cc2C(=O)O)C1 (stereo not drawn) [Example 67, 4-[(2′,4′-dichloro-4-{[(1-methylpyrrolidin-3-yl)oxy]carbonyl}-[1,1′-biphenyl]-3-yl)carbamoyl]-6-hydroxybenzene-1,3-dicarboxylic acid]",< 0.5
21,O=C(OCCN1CCOCC1)c1ccc(-c2ccccc2)cc1N1C(=O)c2ccc(-c3c[nH]nn3)cc2C1=O [Example 67],5 to 20
22,"CC(CN(C)C)OC(=O)c1ccc(-c2ccc(Cl)cc2Cl)cc1NC(=O)c1cc(C(=O)O)c(O)cc1C(=O)O (stereo not drawn) [Example 73, 2-{[2′,4′-dichloro-4-({[1-(dimethylamino)propan-2-yl]oxy}carbonyl)-[1,1′-biphenyl]-3-yl]carbamoyl}-5-hydroxybenzene-1,4-dicarboxylic acid]",< 0.5
23,"N#Cc1cc(-c2ccccc2)ccc1N1C(=O)c2ccc(C(=O)O)cc2C1=O [compound 145, 2-(3-cyanobiphenyl-4-yl)-1,3-dioxoisoindoline-5-carboxylic acid]",< 20
24,"O=C1c2ccc(-c3c[nH]nn3)cc2C(=O)N1c1cc(-c2ccc(F)cc2)c(-c2ccccc2)cn1 [compound 146, 2-(4-(4-fluorophenyl)-5-phenylpyridin-2-yl)-5-(1H-1,2,3-triazol-4-yl)isoindoline-1,3-dione]",< 20
25,"Cn1cc(-c2ccccc2)cc(N2C(=O)c3ccc(-c4c[nH]nn4)cc3C2=O)c1=O [compound 147, 2-(1-methyl-2-oxo-5-phenyl-1,2-dihydropyridin-3-yl)-5-(1H-1,2,3-triazol-4-yl)isoindoline-1,3-dione]",< 20
26,"NS(=O)(=O)c1ccc(-c2ccccc2)cc1N1C(=O)c2ccc(-c3c[nH]nn3)cc2C1=O [compound 148, 3-(1,3-dioxo-5-(1H-1,2,3-triazol-4-yl)isoindolin-2-yl)biphenyl-4-sulfonamide]",< 20
27,"COc1ccc(-c2c(C)sc(N3C(=O)c4ccc(C(=O)NCC(=O)O)cc4C3=O)c2C#N)cc1 [compound 149, 2-(2-(3-cyano-4-(4-methoxyphenyl)-5-methylthiophen-2-yl)-1,3-dioxoisoindoline-5-carboxamido)acetic acid]",< 20
28,"COC(=O)c1cc(-c2ccccc2)ccc1N1C(=O)c2ccc(C(=O)NS(=O)(=O)c3ccccc3)cc2C1=O [compound 152, methyl 4-(1,3-dioxo-5-(phenylsulfonylcarbamoyl)isoindolin-2-yl)biphenyl-3-carboxylate]",< 20
29,"COc1ccc(-c2nnn[nH]2)c(N2C(=O)c3ccc(-c4c[nH]nn4)cc3C2=O)c1 [compound 154, 2-(2-(1H-tetrazol-5-yl)-5-methoxyphenyl)-5-(1H-1,2,3-triazol-4-yl)isoindoline-1,3-dione]",5 to 20
30,"CN1CCN(CCOC(=O)c2ccc(-c3ccc(F)c(F)c3)cc2N2Cc3ccc(CO)cc3C2=O)CC1 [compound 155, 2-(4-methylpiperazin-1-yl)ethyl 3′,4′-difluoro-3-(6-(hydroxymethyl)-1-oxoisoindolin-2-yl)biphenyl-4-carboxylate]",< 20
